In US5292751A, “5,7-dihydroxy-2-methyl-8-(4-(3-hydroxy-1-(1-propyl))pip eridinyl)-4H-1-benzopyran-4-one, its preparation and its use” (priority 1991, dated 1994):
Read-outs that look alike come from different tables or passages of the source.

Assays:
in vivo [1] = type: in vivo; conditions: for potentiation of the secondary arthritic response: p.o. per day
Description: 2. Adjuvant induced arthritis (developing) in Rats
Female Charles Foster rats weighing 150-180 g were sorted into groups (10 rats/group). Each animal received 10 μl of 1% suspension of mycobacterium tuberculli in paraffin oil, intradermally, at the base of the tail. Drug treatment was instituted on the day of the induction of arthritis and continued for 21 days. The body weight of each rat was noted prior to the adjuvant suspension injection and subsequently all throughout for 21 days. Volumes of both hind paws were recorded on the day of injection and subsequently from 7 days onwards till the end of the experiment.

[2] = type: in vivo; conditions: for Therapeutic index (LD50 ED50): LD50 over carrageenin ED50
Description: 1. Acute inflammation model:
Systemic anti-inflammatory action on carrageenin-induced paw oedema in rats.
Male Charles Foster rats (120-150 g) were fasted for 18 hours, with water ad libitum. The test compound suspended in Tween^R 80 and 0.5% C.M.C. was administered orally. The control group received Tween 80 and 0.5% C.M.C. 0.05 ml of 0.5% carrageenin suspension was injected subcutaneously into the plantar region of the left hind paw. Using a Maclab differential volume meter, the paw volume was determined before the carrageenin injection and 3 and 6 hours after the injection. The percentage decrease in paw volume was calculated by the following equation: [formula] The ED50 value was calculated from the dose/response curve. Six animals were used for each group.

in vivo [3] = conditions: po, rat
[4] = rat, p.o., carrageenin paw oedema, from dose/response curve

Structure (SMILES) | deaths or toxic side effects (in vivo [1]; 30 mg/kg, p.o./day, 21 days) | inhibition of adjuvant arthritis (in vivo [1]; 1.25, 2.5, 5 and 10 mg/kg/day, p.o., 21 days) | therapeutic index, comparison in words ([2]; compared with compounds B and C) | ED50, mg/kg p.o. [2, 4] [mg/kg] | Therapeutic index (LD50 ED50) ([2]; rat, p.o.) | LD50 (in vivo [3]) [mg/kg] | potentiation of the secondary arthritic response (in vivo [1]; 3 mg/kg) [%] | potentiation of the secondary arthritic response (in vivo [1]; 9 mg/kg) [%] | symptoms of cytotoxicity (in vivo [1]; 18 mg/kg, p.o./day) | inhibition of adjuvant arthritis (in vivo [1]; 18 mg/kg, p.o./day, may be due to toxicity) | response in adjuvant arthritis (in vivo [1]; 3, 9, 18 and 27 mg/kg/day p.o., 21 days) | therapeutic range (in vivo [1]; p.o., daily dosing) | ED50, mg/kg p.o. ([2]; po) [mg/kg] | inhibition of adjuvant arthritis (in vivo [1]; 0.1, 1 and 10 mg/kg, p.o., 21 days) | mortality (in vivo [1]; rat, in vivo, po, 10 mg/kg/day, 10 mg/kg, p.o./day, between 9th and 11th day of administration) [%]
CCCN1CC[C@H](c2c(O)cc(O)c3c(=O)cc(C)oc23)[C@H](O)C1 (single isomer, unassigned) [Compound A] | No deaths or toxic side effects were observed | dose-dependent and significant inhibition | favourable therapeutic index over compounds B and C | 20.0 | 32.5 | 650 |  |  |  |  |  |  |  |  | 
Cc1cc(=O)c2c(O)cc(O)c(C3CCN(C)CC3O)c2o1 (stereo not drawn) [Compound B] |  |  |  |  |  |  | 58.6 | 64.9 | weight loss and severe diarrhoea | significant inhibition | biphasic response | narrow therapeutic range | 9.0 |  | 
CN1CCC(c2c(O)cc(O)c3c(=O)cc(-c4ccccc4)oc23)C(O)C1 (stereo not drawn) [Compound C] |  |  |  | 1.3 | 20.76 | 27 |  |  |  |  |  |  |  | No inhibition of adjuvant arthritis was seen at any of the doses tested | 50
